Structures are written as SMILES. Where two headings read alike, the source gives them in different places. Some results are limits rather than exact numbers.

Series [1] concerns human multiple myeloma cell line RPMI 8226. Briefly: Cell level anti-tumor activity test, CCK-8, multiple myeloma cells. The class given is cell-based. The conditions noted are these: RPMI-8226, 72 h.
Description: According to the cell growth rate, the multiple myeloma cells in the logarithmic growth phase were inoculated into the 96-well culture plate at 100 μL/well, and then 1 μL/well of compound solution was added, and three replicate wells were set for each concentration, and the DMSO solvent control at corresponding concentration was also set.
CCK-8 staining method: after the drug was applied, 10 μL of CCK-8 solution was added to each well, and incubated at 37° C. for 3 h. The OD value at 450 nm and 690 nm was measured by microplate reader.
The inhibition rate (% Inhibiton) and activity (% Activity) of the test substance on the proliferation of multiple myeloma cells were calculated according to the following formula, wherein ODsample refers to the absorbance value of the administration hole (OD450-OD690). OD DMSO refers to the absorbance of the DMSO control well (OD450-OD690).
The logarithm of the concentration was plotted against the activity percentage (% Activity), and the fitted curve was calculated by nonlinear regression. The value of IC50 was calculated by using the GraphPad Prism5 software log(inhibitor) vs response—Variable slope parameter setting. Each set of experiments was repeated three times independently, while 3 replicate wells per concentration.
Series [2] deals with human myeloma RPMI 8226 NOD/SCID mouse xenografts. Briefly: Pharmacological experiment in human myeloma RPMI 8226 NOD/SCID mouse transplantation model. The class given is in vivo. From the text:
The efficacy of compound H08 in an animal model of human multiple myeloma was investigated.
NOD/SCID mice, female, 5-6 weeks old, body weight 20±3 g, provided by Shanghai Lingchang Biotechnology Co., Ltd., production certificate number: SCXK (Shanghai) 2013-0018. Number of animals per group: 6. IACUC number: 2013-0007 (Nanmo).
Human myeloma RPMI 8226 cell line was preserved by Li Jia et al., Shanghai Institute of Materia Medica. The cell line was inoculated to the right axillary fossa of NOD/SCID mice, and the amount of cells inoculated was 1×10^7 cells each mouse. After the transplanted tumor was formed, it was used in NOD/SCID mice after 2 passages.
The tumor tissue in the vigorous growth period was cut into 1.5 mm^3, and inoculated subcutaneously in the right axilla of the NOD/SCID mice under aseptic conditions. The diameter of the transplanted tumor of NOD/SCID mice were measured with a vernier caliper and the animals were randomly grouped when the tumor growed up to 100-300 mm^3. The grouping scheme is shown in Table 5, and the solvent control group was given an equal amount of blank solvent. The diameter of the transplanted tumor was measured twice a week during the entire experiment, and the body weight of the mice was weighed as well. The tumor volume (TV) was calculated as: TV=½×a×b^2, wherein a and b represent length and width, respectively. The relative tumor volume (RTV) was calculated based on the measured results and the formula was: RTV=Vt/V0. Wherein V0 is the tumor volume measured before grouping and dosing (d0), and Vt is the tumor volume at each measurement.

Series [3] in a line: Preliminary metabolic experiments, oral bioavailability in mice. The conditions noted are these: mouse, in vivo.
For the next series, the system named is tumor cell. The conditions noted are these: WO2012152208, background; read-out: IC50 tumor cell proliferation inhibitory activity; cited from earlier work.
Another series addresses T1, human HDAC6 (Homo sapiens, UniProt Q9UBN7).
T1 construct: made in house
T1 sequence (Q9UBN7 1-1215): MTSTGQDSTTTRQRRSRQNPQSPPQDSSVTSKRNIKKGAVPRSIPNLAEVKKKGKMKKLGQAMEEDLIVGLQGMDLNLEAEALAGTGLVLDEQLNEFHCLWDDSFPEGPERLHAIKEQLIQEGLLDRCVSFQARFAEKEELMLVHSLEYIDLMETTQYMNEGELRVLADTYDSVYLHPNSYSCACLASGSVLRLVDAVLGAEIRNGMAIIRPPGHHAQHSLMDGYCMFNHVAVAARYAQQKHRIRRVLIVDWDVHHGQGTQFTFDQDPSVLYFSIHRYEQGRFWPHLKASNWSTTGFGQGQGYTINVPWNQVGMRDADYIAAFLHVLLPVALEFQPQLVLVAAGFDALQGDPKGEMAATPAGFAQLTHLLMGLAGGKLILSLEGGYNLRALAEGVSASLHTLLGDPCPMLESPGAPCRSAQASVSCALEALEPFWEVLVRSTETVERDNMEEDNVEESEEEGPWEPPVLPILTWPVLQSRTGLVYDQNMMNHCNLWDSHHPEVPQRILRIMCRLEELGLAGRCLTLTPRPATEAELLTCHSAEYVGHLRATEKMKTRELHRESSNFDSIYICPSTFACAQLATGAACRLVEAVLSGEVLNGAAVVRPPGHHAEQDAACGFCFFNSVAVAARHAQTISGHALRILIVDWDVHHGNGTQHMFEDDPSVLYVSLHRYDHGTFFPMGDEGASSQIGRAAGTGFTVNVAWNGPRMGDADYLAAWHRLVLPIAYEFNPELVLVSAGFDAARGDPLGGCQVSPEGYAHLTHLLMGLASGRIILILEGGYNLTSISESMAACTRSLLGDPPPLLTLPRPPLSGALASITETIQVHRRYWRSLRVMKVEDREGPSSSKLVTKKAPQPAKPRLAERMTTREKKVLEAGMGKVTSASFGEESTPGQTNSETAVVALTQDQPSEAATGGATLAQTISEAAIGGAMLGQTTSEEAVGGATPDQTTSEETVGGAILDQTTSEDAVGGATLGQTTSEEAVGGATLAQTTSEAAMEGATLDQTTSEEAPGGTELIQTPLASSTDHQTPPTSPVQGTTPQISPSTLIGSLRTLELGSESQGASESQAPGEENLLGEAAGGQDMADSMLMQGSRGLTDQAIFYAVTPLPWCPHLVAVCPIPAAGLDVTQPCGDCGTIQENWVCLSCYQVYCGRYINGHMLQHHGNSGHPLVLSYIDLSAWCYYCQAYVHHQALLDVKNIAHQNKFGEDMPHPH
Briefly: Inhibition activity test of histone deacetylase 6 (fluorescence, Boc-Lys(Ac)-AMC substrate). The class given is biochemical. As to conditions: mean of 3 experiments.

For another series, the target named is T2, human HDAC3 (Homo sapiens, UniProt O15379).
T2 construct: made in house
Briefly: Inhibition activity test of histone deacetylase 3 (fluorescence, Ac-Lys-Tyr-Lys(Ac)-AMC substrate). As to conditions: mean of 3 experiments. The class given is biochemical.

The target in another series is T3, human HDAC1 (Homo sapiens, UniProt Q13547).
T3 construct: made in house
Briefly: Inhibition activity test of histone deacetylase 1 (fluorescence, Ac-Lys-Tyr-Lys(Ac)-AMC substrate). The class given is biochemical. The conditions noted are these: mean of 3 experiments.

For series [4] the following is noted: background, subsequent studies on 201410136196.7 compounds; cited from earlier work.
[5] abbreviates: read-out: IC50 (growth inhibition, RPMI 8226).
[6] abbreviates: 25 mg/kg, p.o., once/day, 3 weeks.
Setting [7] is: 25 mg/kg, p.o., once/day, 3 weeks, d21.
The mark [8] stands for this setting: 50 mg/kg, p.o., once/day, 3 weeks.
The mark [9] stands for this setting: 50 mg/kg, p.o., once/day, 3 weeks, d21.
The mark [10] stands for this setting: read-out: IC50 (proliferation of RPMI 8226).
Setting [11] is: 100 mg/kg bid, p.o., 3 weeks, d21.
[12] abbreviates: 1 mg/kg, i.v., twice/week for 3 weeks.
Setting [13] is: 1 mg/kg, i.v., twice/week for 3 weeks, d21.

T2 sequence (O15379 whole entry): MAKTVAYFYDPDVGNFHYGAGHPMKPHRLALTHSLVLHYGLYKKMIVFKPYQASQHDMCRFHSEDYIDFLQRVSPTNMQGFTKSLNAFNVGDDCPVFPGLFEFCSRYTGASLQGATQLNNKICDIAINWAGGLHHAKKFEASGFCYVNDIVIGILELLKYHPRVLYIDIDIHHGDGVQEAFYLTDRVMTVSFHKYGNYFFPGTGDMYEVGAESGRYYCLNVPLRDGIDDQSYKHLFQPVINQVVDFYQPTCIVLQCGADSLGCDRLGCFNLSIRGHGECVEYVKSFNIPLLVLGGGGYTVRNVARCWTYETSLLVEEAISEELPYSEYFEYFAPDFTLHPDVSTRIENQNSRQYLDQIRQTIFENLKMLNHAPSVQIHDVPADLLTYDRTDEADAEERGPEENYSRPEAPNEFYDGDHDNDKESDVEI
T3 sequence (Q13547 whole entry): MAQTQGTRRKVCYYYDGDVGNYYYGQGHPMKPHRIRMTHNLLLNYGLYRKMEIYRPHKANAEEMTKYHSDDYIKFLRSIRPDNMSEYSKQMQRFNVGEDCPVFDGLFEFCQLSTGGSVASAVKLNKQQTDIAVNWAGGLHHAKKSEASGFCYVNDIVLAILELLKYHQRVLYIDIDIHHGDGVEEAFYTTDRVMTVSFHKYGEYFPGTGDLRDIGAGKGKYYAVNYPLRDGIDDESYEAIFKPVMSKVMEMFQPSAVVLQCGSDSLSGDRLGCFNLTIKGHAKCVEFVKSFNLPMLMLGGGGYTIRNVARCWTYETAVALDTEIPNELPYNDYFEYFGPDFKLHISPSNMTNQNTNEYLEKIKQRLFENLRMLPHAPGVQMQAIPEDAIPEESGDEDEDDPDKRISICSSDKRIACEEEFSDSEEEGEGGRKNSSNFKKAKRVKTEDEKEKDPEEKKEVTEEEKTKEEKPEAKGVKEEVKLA
Description for human HDAC1: (§1) The inhibitory activity of the example compounds against human histone deacetylases 1, 3 and 6 (i.e., human HDAC1, HDAC3 and HDAC6) was tested.
(§2) Substrates: HDAC1, HDAC 3: Ac-Lys-Tyr-Lys (Ac)-AMC; HDAC6: Boc-lys (Ac)-AMC; all purchased from Shanghai Jill Biochemical Co., Ltd.
(§3) The activity of HDAC1 and HDAC3 was detected using Ac-Lys-Tyr-Lys(Ac)-AMC as substrate, and the activity of HDAC6 was detected using Boc-Lys(Ac)-AMC as substrate, and both were detected by fluorescence detection. […] The initial velocity of the reaction is calculated by detecting the change in the fluorescence signal over time.
(§4) The test compound, enzyme and reaction buffer were well mixed and the substrate was added to start the reaction. […]
(§5) The fluorescence signal intensity at 460 nm was measured, and then the activity percentage (% Activity) of each concentration groups of the sample was calculated. […]
(§6) The logarithm of the concentration was plotted against the percentage of activity, and then the nonlinear regression was used to calculate the fit curve. The value of IC50 was calculated by the software GraphPad Prism 5 formula log(inhibitor) vs. response—Variable slope.
(§7) Each of the above experiments was repeated 3 times, and there were more than 3 replicate wells for each experiment. The average IC50 value of the three experiments was determined as the final indicator of the compound inhibition ability.
Description for human HDAC3: as §1, §2, §3, §4, §5, §6, §7
Description for human HDAC6: as §1, §2, §3, §4, §5, §6, §7

Turning to `C[C@H](NC(=O)c1nc(-c2ncc(-c3ccc(F)cc3)s2)sc1C1CC1)c1ccc(C(=O)NO)cc1` [Compound H09], the IC50 in series [1] (setting [5]) was 18 ± 6 nM.
The bioavailability is dose-corrected exposure relative to a reference, in per cent. High values mean much systemic uptake, low ones little systemic uptake. Take `C[C@H](NC(=O)c1nc(-c2ncc(-c3ccccc3)s2)sc1C1CC1)c1ccc(C(=O)NO)cc1` [Compound H08]: in series [2] (setting [6]), the “TV d0 (average ± SD)” value was found to be 154 ± 44 mm^3 and the “body weight d0” value worked out at 22.1 ± 1.3 g. Further, in series [2] (setting [7]), the “RTV (Average ± SD)” value is 8.40 ± 1.35, the “TV d21 (average ± SD)” value is given as 1,279 ± 353 mm^3 and the “body weight d21” value is reported as 23.7 ± 0.8 g. In series [2] (setting [8]), the “TV d0 (average ± SD)” value was 154 ± 45 mm^3 and the “body weight d0” value is 22.2 ± 1.1 g. In series [2] (setting [9]), the “RTV (Average ± SD)” value amounted to 5.48 ± 2.99, the “TV d21 (average ± SD)” value was 821 ± 406 mm^3 and the “body weight d21” value is 22.7 ± 0.9 g. For the same compound, in series [2] (oral 50 mg/kg for three weeks), the “change in body weight of the mice during the experiment” value is on record as “no change in body weight”. The compound further had a bioavailability in series [3] of 34.4%. Further, the IC50 in series [1] (setting [5]) stood at 8 nM. Moreover, the IC50 in series [1] (setting [10]) is approximately 8 nM.
For the compound `O=C(CCNC(=O)c1nc(-c2nccs2)sc1C1CC1)NO` [bexanostat, reference compound], in series [2] (100 mg/kg bid, p.o., 3 weeks), the “TV d0 (average ± SD)” value worked out at 155 ± 46 mm^3 and the “body weight d0” value is 22.2 ± 1.4 g. Further, in series [2] (setting [11]), the “RTV (Average ± SD)” value came out at 4.83 ± 0.51, the “TV d21 (average ± SD)” value was 620 ± 87 mm^3 and the “body weight d21” value worked out at 19.8 ± 1.0 g. In addition, in the series on tumor cell, the IC50 is less than 400 nM. The IC50 in series [1] (setting [5]) came out at 690 ± 410 nM.
In the case of `C[C@H](NC(=O)c1nc(-c2nc3c(s2)CCCC3)sc1C1CC1)c1ccc(C(=O)NO)cc1` [Compound H07], in series [1] (setting [5]), the IC50 was found to be 139 ± 19 nM.
For the compound `O=C(NO)c1ccc(CNC(=O)c2nc(-c3ncc(-c4ccccc4)s3)sc2C2CC2)cc1` [Compound H12], the IC50 on human HDAC6 was 9.78 ± 0.02 nM; against human HDAC3 it was 6.15 ± 0.25 nM; in series [1] (setting [5]) it was 8 nM; in series [1] (setting [10]) it was approximately 8 nM; at human HDAC1, 6.71 ± 0.11 nM.
As to `C[C@H](NC(=O)c1nc(-c2nccs2)sc1C1CC1)c1ccc(C(=O)NO)cc1` [Compound H02], the IC50 in series [1] (setting [5]) came to 28 ± 10 nM.
For the compound `CC(NC(=O)c1nc(-c2nccs2)sc1C1CC1)c1ccc(C(=O)NO)cc1` (centres unmarked) [Compound H01], the IC50 in series [1] (setting [5]) came out at 182 ± 15 nM.
With `O=C(NCCC(=O)C(F)(F)F)c1nc(-c2nccs2)sc1C1CC1` [GCJ403], in series [4], the oral bioavailability is 14.7%.
As to `COc1ccc(-c2cnc(-c3nc(C(=O)N[C@@H](C)c4ccc(C(=O)NO)cc4)c(C4CC4)s3)s2)cc1` [Compound H10], the IC50 in series [1] (setting [5]) was found to be 12 ± 4 nM.
`C[C@@H](NC(=O)c1nc(-c2ncc(-c3ccccc3)s2)sc1C1CC1)c1ccc(C(=O)NO)cc1` [Compound H11]: in series [1] (setting [5]), the IC50 worked out at 326 ± 18 nM.
The same measure, in the same setting: then `Cc1cnc(-c2nc(C(=O)N[C@@H](C)c3ccc(C(=O)NO)cc3)c(C3CC3)s2)s1` [Compound H05], with 123 ± 43 nM; and `Cc1csc(-c2nc(C(=O)N[C@@H](C)c3ccc(C(=O)NO)cc3)c(C3CC3)s2)n1` [Compound H06], with 50 ± 22 nM.
On to `CC(C)C[C@H](NC(=O)[C@H](Cc1ccccc1)NC(=O)c1cnccn1)B(O)O` [PS341, Bortezomib, reference compound], for which, in series [2] (setting [12]), the “TV d0 (average ± SD)” value came out at 155 ± 48 mm^3 and the “body weight d0” value is on record as 21.9 ± 1.0 g. For the same compound, in series [2] (setting [13]), the “RTV (Average ± SD)” value is reported as 7.19 ± 3.58, the “T/C relative tumor growth rate” value was found to be 45.27%, the “TV d21 (average ± SD)” value was 1,077 ± 538 mm^3 and the “body weight d21” value came to 23.3 ± 1.7 g.
